Data: PubChem BioAssay (NCI)
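Step 1: Grow cells in 96-well plates. Step 2: Expose to compound for 48 hours at 5 concentrations. Step 3: Interpolate endpoints linearly; if unreached, use highest concentration. TGI marks complete inhibition of growth.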

Columns and labels:
Experiment in all cases: DTP human tumour cell line panel, 48 h
HT29 colon = tested on: HT29 colon
TK-10 renal = tested on: TK-10 renal
CAKI-1 renal = tested on: CAKI-1 renal
PC-3 prostate = tested on: PC-3 prostate
CCRF-CEM leukemia = tested on: CCRF-CEM leukemia
SR leukemia = tested on: SR leukemia
HCT-15 colon = tested on: HCT-15 colon
K-562 leukemia = tested on: K-562 leukemia
UACC-257 melanoma = tested on: UACC-257 melanoma
MALME-3M melanoma = tested on: MALME-3M melanoma
HCC-2998 colon = tested on: HCC-2998 colon

| Structure (SMILES) | TGI (HT29 colon) | TGI (TK-10 renal) | TGI (CAKI-1 renal) | TGI (PC-3 prostate) | TGI (CCRF-CEM leukemia) | TGI (SR leukemia) | TGI (HCT-15 colon) | TGI (K-562 leukemia) | TGI (UACC-257 melanoma) | TGI (MALME-3M melanoma) | TGI (HCC-2998 colon) |
| --- | --- | --- | --- | --- | --- | --- | --- | --- | --- | --- | --- |
| CC1(C)CC(=O)C2=C(C1)c1c(ccc3ccccc13)NC2c1cn(Cc2ccc(Cl)cc2)c2ccccc12 (stereo unspecified) | > 100 µM | > 100 µM | > 100 µM | > 100 µM | > 100 µM | > 100 µM | > 100 µM | > 100 µM | > 100 µM |  |  |
| COC(OC)c1cccc2c1C(=O)CCC1(O)c3ccccc3C1C2 (stereo unspecified) | > 100 µM | > 100 µM |  |  | > 100 µM | > 100 µM | > 100 µM | > 100 µM | > 100 µM | > 100 µM | > 100 µM |
| COc1ccc(C2C3C(=O)C=CC(=O)C3[C@@H]2C)cc1OC (stereo partly specified) | > 100 µM | > 100 µM | > 100 µM |  |  |  | 62.4 µM | > 100 µM | > 100 µM | > 100 µM | > 100 µM |
| O=C1CCC[C@]2(CCC[C@@H](O)C2)N1 | > 100 µM | > 100 µM | > 100 µM | > 100 µM | > 100 µM |  | > 100 µM | > 100 µM | > 100 µM | > 100 µM | > 100 µM |
| N#Cc1c(-c2ccco2)cc(-c2ccc(NCc3nc4ccccc4[nH]3)cc2)nc1N | 91.7 µM | 86.2 µM | > 100 µM |  | > 100 µM |  | 69.2 µM | 71.7 µM |  | 51.5 µM | 54.7 µM |
| CCCC/C=C/C1Cc2ccccc2CN1S(=O)(=O)c1ccc(C)cc1 (stereo unspecified) | 21.7 µM | 61.3 µM |  |  | 42.3 µM | 41.8 µM | 49.2 µM | > 100 µM | 17.9 µM | > 100 µM | 25.3 µM |
| COc1ccc2nc3cccc([N+](=O)[O-])c3c(NCCO)c2c1 | 0.125 µM | 0.142 µM | 0.0706 µM | 0.0982 µM | 2.68 µM |  | 0.0481 µM | 0.0181 µM | 0.0813 µM | 0.0337 µM | 0.0395 µM |
| O=C(O)C1CCCN1Cc1cc2ccccc2c2ccccc12 (stereo unspecified) | > 100 µM | > 100 µM | > 100 µM | > 100 µM |  |  | > 100 µM | > 100 µM | > 100 µM | > 100 µM |  |
| NC(=O)N1N=C2c3ccccc3CC[C@@H]2C1c1ccccc1 (stereo partly specified) | > 100 µM | > 100 µM | > 100 µM |  | > 100 µM |  | > 100 µM | > 100 µM | > 100 µM | > 100 µM | > 100 µM |
| O=c1cc(N2CCOCC2)[nH]c(=O)n1-c1cccc(C(F)(F)F)c1 | > 100 µM | > 100 µM | > 100 µM |  | > 100 µM | > 100 µM | > 100 µM | > 100 µM | > 100 µM | > 100 µM | > 100 µM |
| COC(=O)C1=C(C(=O)OC)C2(OC(C)=O)c3ccccc3-c3ccccc3C12 (stereo unspecified) | 10.6 µM | 8.08 µM | 6.08 µM |  |  | 16.5 µM | 10.3 µM |  | 11.8 µM | 5.83 µM | 31 µM |
| Clc1ccc(Oc2ccc(N=Cc3ccc(Cl)cc3Cl)cc2Cl)cc1 | > 100 µM | > 100 µM | > 100 µM | > 100 µM | 44.8 µM |  | > 100 µM |  | > 100 µM | 87.4 µM | > 100 µM |
| CSc1nc(-c2cc3c(c(SC)n2)CCCCC3)cc2c1CCCCC2 | > 100 µM | > 100 µM | > 100 µM | > 100 µM | > 100 µM |  | > 100 µM | > 100 µM | > 100 µM |  | > 100 µM |
| COc1ccc(N2C(=O)C3ON(C(C(N)=O)c4ccccc4)C(c4ccc(-c5ccccc5)cc4)C3C2=O)cc1 (stereo unspecified) | > 50 µM | > 50 µM | > 50 µM | > 50 µM | > 50 µM | > 50 µM | > 50 µM | > 50 µM | > 50 µM | > 50 µM |  |
| COc1cc(C2c3cc4c(cc3OC(Nc3ccc(C(=O)O)cc3)C2C)OCO4)cc(OC)c1OC (stereo unspecified) | > 34.2 µM | > 100 µM | 0.761 µM | > 100 µM | > 41.8 µM |  | > 100 µM |  | > 94.1 µM |  | 0.853 µM |
| CC1=C2C(=O)[C@H]3[C@@H](CC=C4C[C@@H](O)CC[C@@]43C)[C@@H]2CC[C@]12O[C@@H]1C[C@H](C)CN[C@H]1[C@H]2C | > 100 µM | > 53.8 µM | > 59.2 µM | > 100 µM | > 100 µM |  | > 81.3 µM | > 100 µM | > 71.5 µM | > 79.3 µM | > 82.8 µM |
| CSC(C1c2ccccc2N(C)C2=NC(=O)N(C)C(=O)C21Cl)S(=O)(=O)c1ccc(C)cc1 (stereo unspecified) | > 100 µM | > 100 µM | 48 µM |  | 28.3 µM |  | > 100 µM | 43.5 µM | > 100 µM | > 100 µM | > 100 µM |
| O=C/C(=C(/Br)I)c1ccccc1 | 5.29 µM | 20.2 µM | 4.15 µM | 18.2 µM | 0.798 µM | 2.3 µM | 5.65 µM | 3.85 µM | 17.8 µM | 5.87 µM |  |
| O=C(/C=C/c1ccc(Cl)cc1)Oc1ccc(/C=C2\CCCCC2=O)cc1 | > 100 µM | > 100 µM | > 100 µM | > 100 µM | > 100 µM | > 100 µM | > 100 µM |  | > 100 µM | > 100 µM | > 100 µM |
| CC1OC(OC2C(O[C@H]3CC[C@@]4(C)[C@@H](CC[C@@H]5[C@@H]4CC[C@]4(C)[C@@H]6[C@H](C[C@@H]54)O[C@]4(CC[C@@H](C)CO4)[C@H]6C)C3)OC(CO)C(OC3OC(CO)C(O)C(OC4OCC(O)C(O)C4O)C3OC3OCC(O)C(O)C3O)C2O)C(O)C(O)C1O (stereo partly specified) | 1.71 µM |  | 2.53 µM | 1.8 µM | 0.499 µM |  | 2.61 µM | > 100 µM | 2.34 µM | 2.63 µM | 3.01 µM |
| Nc1nc(SCCNC(=O)CCc2ccc(O)cc2)nc2c1ncn2C1OC(CO)C(O)C1O (stereo unspecified) | > 203 µM | > 203 µM | > 203 µM |  | > 203 µM | > 203 µM | > 203 µM | > 203 µM | > 203 µM | > 203 µM | > 203 µM |
| Clc1ccc(SCCSCCCCCCCCCCSCCSc2ccc(Cl)cc2)cc1 | > 100 µM | > 100 µM | > 100 µM |  | > 100 µM |  | > 100 µM | > 100 µM | > 100 µM | > 100 µM | > 100 µM |
